In patent US20040224958A1, “Pyridopyrimidinone derivatives for treatment of neurodegenerative disease” (priority 2000, published 2004) one finds IC50 data, which are given here for 23 compounds.

One test concerns the target Cdk5/p25 (Homo sapiens, UniProt Q00535). Briefly: Cyclin-Dependent Kinase 5 High Throughput Screening (cdk5-HTS) Assay. The format is biochemical. As to conditions: high throughput screen. The method, boiled down:
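IC50 determined from 33P incorporation into GST-RbCOOH captured on glutathione plates and read by scintillation counting. Reaction: 1.0 μg/mL Cdk5/p25, 20 μM [γ33P]ATP, pH 7.4 Tris buffer with MgCl2 and DTT, 30 min at room temperature, stopped with EDTA.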

The target of a further test is cdk2/cyclinA (Homo sapiens, UniProt P24941). Briefly: Cyclin-Dependent Kinase Assay cdk2/cyclinA. To be noted: cdk2/A IC50.
For another test, the target named is cdk2/cyclinE (Homo sapiens, UniProt P24941). Kind of test: Cyclin-Dependent Kinase Assay cdk2/cyclinE. To be noted: cdk2/E IC50.
The target in a further test is cdc2/cyclinB (Homo sapiens, UniProt P06493). Briefly: Cyclin-Dependent Kinase Assay cdc2/cyclinB.
For the next test, the target named is cdk4/D (Homo sapiens, UniProt P11802). Kind of test: Cyclin-Dependent Kinase 4 (cdk4) Assay. The format is biochemical. As to conditions: read-out: cdk4/D IC50.
Chain of cdk4/D (P11802 whole entry): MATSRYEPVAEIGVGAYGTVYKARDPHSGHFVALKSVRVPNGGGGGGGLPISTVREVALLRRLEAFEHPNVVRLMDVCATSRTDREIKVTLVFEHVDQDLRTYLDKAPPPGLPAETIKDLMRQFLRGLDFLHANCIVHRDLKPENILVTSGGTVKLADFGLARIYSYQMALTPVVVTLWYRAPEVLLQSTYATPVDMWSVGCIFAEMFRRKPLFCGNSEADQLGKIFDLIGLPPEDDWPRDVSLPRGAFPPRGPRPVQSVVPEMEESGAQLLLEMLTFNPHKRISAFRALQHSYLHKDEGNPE
Chain of cdk4/D (P24385 whole entry, further chain): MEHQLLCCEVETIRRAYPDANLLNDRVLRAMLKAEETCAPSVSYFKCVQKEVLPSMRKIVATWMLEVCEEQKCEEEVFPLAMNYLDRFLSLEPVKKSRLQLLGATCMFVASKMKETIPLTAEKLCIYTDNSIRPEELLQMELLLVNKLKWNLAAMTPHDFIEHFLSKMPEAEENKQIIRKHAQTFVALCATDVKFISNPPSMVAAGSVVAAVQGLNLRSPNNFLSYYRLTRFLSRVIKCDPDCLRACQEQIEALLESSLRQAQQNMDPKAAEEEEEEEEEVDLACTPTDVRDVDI

Chain of cdc2/cyclinB (P06493 whole entry): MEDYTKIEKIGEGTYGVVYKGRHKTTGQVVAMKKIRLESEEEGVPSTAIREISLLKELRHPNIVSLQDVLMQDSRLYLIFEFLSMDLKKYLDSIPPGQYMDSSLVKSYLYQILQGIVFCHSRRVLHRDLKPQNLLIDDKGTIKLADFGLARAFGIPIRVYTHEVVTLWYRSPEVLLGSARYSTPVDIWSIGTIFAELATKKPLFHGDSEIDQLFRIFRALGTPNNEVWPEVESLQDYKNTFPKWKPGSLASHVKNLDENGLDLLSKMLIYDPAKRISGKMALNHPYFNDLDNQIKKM
Chain of cdc2/cyclinB (P14635 whole entry, further chain): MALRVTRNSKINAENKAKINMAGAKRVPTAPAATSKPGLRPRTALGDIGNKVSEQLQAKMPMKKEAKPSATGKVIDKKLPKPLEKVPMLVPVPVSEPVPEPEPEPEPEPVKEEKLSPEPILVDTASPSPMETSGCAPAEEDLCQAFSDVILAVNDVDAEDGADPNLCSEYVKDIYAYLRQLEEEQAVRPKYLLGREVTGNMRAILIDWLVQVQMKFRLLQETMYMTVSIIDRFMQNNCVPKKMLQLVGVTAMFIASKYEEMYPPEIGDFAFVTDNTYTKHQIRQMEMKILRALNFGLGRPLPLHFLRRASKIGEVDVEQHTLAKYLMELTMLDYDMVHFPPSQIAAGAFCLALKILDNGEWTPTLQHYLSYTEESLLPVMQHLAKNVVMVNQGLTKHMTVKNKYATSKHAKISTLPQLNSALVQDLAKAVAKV

`CC(=O)Nc1cc(Nc2ncc3ccc(=O)n(C4CCCC4)c3n2)ccc1C` [Example 558, N-[5-(8-Cyclopentyl-7-oxo-7,8-dihydro-pyrido[2,3-d]pyrimidin-2-ylamino)-2-methyl-phenyl]-acetamide]: the IC50 against Cdk5/p25 stood at 220 nM; against cdk2/cyclinA, 340 nM; against cdk2/cyclinE, 280 nM; at cdc2/cyclinB, 510 nM; on cdk4/D, 30 nM.

With `Cc1cc(Nc2ncc3ccc(=O)n(C4CCCC4)c3n2)cc(C)c1O` [Example 559, 8-Cyclopentyl-2-(4-hydroxy-3,5-dimethyl-phenylamino)-8H-pyrido[2,3-d]pyrimidin-7-one], the IC50 was found to be 94 nM on Cdk5/p25; 87 nM at cdk2/cyclinA; 91 nM against cdk2/cyclinE; 82 nM at cdc2/cyclinB; 270 nM at cdk4/D.

Consider `O=C(O)c1cc(Nc2ncc3ccc(=O)n(C4CCCC4)c3n2)ccc1O` [Example 560, 5-(8-Cyclopentyl-7-oxo-7,8-dihydro-pyrido[2,3-d]pyrimidin-2-ylamino)-2-hydroxy-benzoic acid], for which the IC50 was 490 nM on Cdk5/p25; 220 nM against cdk2/cyclinA; 370 nM on cdk2/cyclinE; 450 nM on cdc2/cyclinB; 910 nM at cdk4/D.

`Cc1cc(Nc2ncc3ccc(=O)n(C4CCCC4)c3n2)ccc1Br` [Example 562, 2-(4-Bromo-3-methyl-phenylamino)-8-cyclopentyl-8H-pyrido[2,3-d]pyrimidin-7-one]: the IC50 at Cdk5/p25 turned out to be 50 nM; on cdk2/cyclinA, 56 nM; on cdk2/cyclinE it was 140 nM; against cdc2/cyclinB, 47 nM; on cdk4/D, 160 nM.

As for `O=c1ccc2cnc(Nc3ccc4[nH]ccc4c3)nc2n1CC1CC1` [Example 563, 8-Cyclopropylmethyl-2-(1H-indol-5-ylamino)-8H-pyrido[2,3-d]pyrimidin-7-one], the IC50 against Cdk5/p25 stood at 86.5 nM; on cdk2/cyclinA, 320 nM; against cdk2/cyclinE, 103 nM; against cdc2/cyclinB, 156 nM; on cdk4/D, 87 nM.

Take `O=c1ccc2cnc(Nc3ccc4[nH]nnc4c3)nc2n1CC1CC1` [Example 564, 2-(1H-Benzotriazol-5-ylamino)-8-cyclopropylmethyl-8H-pyrido[2,3-d]pyrimidin-7-one]: the IC50 against Cdk5/p25 is 52 nM; on cdk2/cyclinA, 117 nM; against cdk2/cyclinE, 50 nM; on cdc2/cyclinB, 94.5 nM; at cdk4/D, 505 nM.

As to `CC(C)(C)OC(=O)Nc1ccc(Nc2ncc3ccc(=O)n(CC4CC4)c3n2)cc1` [Example 565, [4-(8-Cyclopropylmethyl-7-oxo-7,8-dihydro-pyrido[2,3-d]pyrimidin-2-ylamino)-phenyl]-carbamic acid tert-butyl ester], the IC50 against Cdk5/p25 was determined as 290 nM; on cdk2/cyclinA, 510 nM; on cdk2/cyclinE, 193 nM; at cdc2/cyclinB, 365 nM; on cdk4/D, 385 nM.

In the case of `O=c1ccc2cnc(Nc3ccc(O)cc3F)nc2n1CC1CC1` [Example 566, 8-Cyclopropylmethyl-2-(2-fluoro-4-hydroxy-phenylamino)-8H-pyrido[2,3-d]pyrimidin-7-one], the IC50 at Cdk5/p25 was found to be 255 nM; against cdk2/cyclinA it was 615 nM; against cdk2/cyclinE it was 187 nM; at cdc2/cyclinB, 445 nM; at cdk4/D, 855 nM.

With `O=c1ccc2cnc(Nc3ccc(O)c(Cl)c3)nc2n1CC1CC1` [Example 567, 2-(3-Chloro-4-hydroxy-phenylamino)-8-cyclopropylmethyl-8H-pyrido[2,3-d]pyrimidin-7-one], the IC50 against Cdk5/p25 was 31.5 nM; at cdk2/cyclinA it was 54.5 nM; at cdk2/cyclinE it was 16.3 nM; against cdc2/cyclinB it was 76 nM; on cdk4/D, 145 nM.

With `O=c1ccc2cnc(Nc3cc(Cl)c(O)c(Cl)c3)nc2n1CC1CC1` [Example 568, 8-Cyclopropylmethyl-2-(3,5-dichloro-4-hydroxy-phenylamino)-8H-pyrido[2,3-d]pyrimidin-7-one], the IC50 was found to be 102 nM against Cdk5/p25; 102 nM at cdk2/cyclinA; 43 nM against cdk2/cyclinE; 101 nM against cdc2/cyclinB; 920 nM on cdk4/D.

For the compound `COc1cc(Nc2ncc3ccc(=O)n(CC4CC4)c3n2)cc(OC)c1OC` [Example 569, 8-Cyclopropylmethyl-2-(3,4,5-trimethoxy-phenylamino)-8H-pyrido[2,3-d]pyrimidin-7-one], the IC50 was 310 nM against Cdk5/p25; 1600 nM at cdk2/cyclinA; 260 nM at cdk2/cyclinE; 560 nM on cdc2/cyclinB; 3500 nM on cdk4/D.

For the compound `O=c1ccc2cnc(Nc3ccc(F)c(C(F)(F)F)c3)nc2n1CC1CC1` [Example 570, 8-Cyclopropylmethyl-2-(4-fluoro-3-trifluoromethyl-phenylamino)-8H-pyrido[2,3-d]pyrimidin-7-one], the IC50 at Cdk5/p25 is 50 nM; on cdk2/cyclinA, 430 nM; on cdk2/cyclinE it was 63 nM; at cdc2/cyclinB it was 170 nM; at cdk4/D, 680 nM.

For `NS(=O)(=O)c1ccc(Nc2ncc3ccc(=O)n(CC4CC4)c3n2)cc1` [Example 571, 4-(8-Cyclopropylmethyl-7-oxo-7,8-dihydro-pyrido[2,3-d]pyrimidin-2-ylamino)-benzenesulfonamide], the IC50 at Cdk5/p25 was found to be 8.8 nM; against cdk2/cyclinA, 15 nM; against cdk2/cyclinE, 5.1 nM; on cdc2/cyclinB, 29 nM; at cdk4/D, 65 nM.

Take `O=c1ccc2cnc(Nc3cc([N+](=O)[O-])ccc3F)nc2n1CC1CC1` [Example 572, 8-Cyclopropylmethyl-2-(2-fluoro-5-nitro-phenylamino)-8H-pyrido[2,3-d]pyrimidin-7-one]: the IC50 came out at 190 nM on Cdk5/p25; 530 nM against cdk2/cyclinA; 84 nM against cdk2/cyclinE; 430 nM at cdc2/cyclinB; 120 nM on cdk4/D.

Regarding `CC(=O)Nc1cc(Nc2ncc3ccc(=O)n(CC4CC4)c3n2)ccc1C#N` [Example 574, N-[2-Cyano-5-(8-cyclopropylmethyl-7-oxo-7,8-dihydro-pyrido[2,3-d]pyrimidin-2-ylamino)-phenyl]-acetamide], the IC50 was determined as 140 nM against Cdk5/p25; 520 nM against cdk2/cyclinA; 270 nM against cdk2/cyclinE; 290 nM at cdc2/cyclinB; 80 nM at cdk4/D.

Turning to `O=c1ccc2cnc(Nc3cc(F)cc(F)c3)nc2n1CC1CC1` [Example 575, 8-Cyclopropylmethyl-2-(3,5-difluoro-phenylamino)-8H-pyrido[2,3-d]pyrimidin-7-one], the IC50 was 230 nM against Cdk5/p25; 330 nM against cdk2/cyclinA; 280 nM against cdk2/cyclinE; 330 nM against cdc2/cyclinB; 540 nM on cdk4/D.

Consider `O=c1ccc2cnc(Nc3ccc(F)c([N+](=O)[O-])c3)nc2n1CC1CC1` [Example 576, 8-Cyclopropylmethyl-2-(4-fluoro-3-nitro-phenylamino)-8H-pyrido[2,3-d]pyrimidin-7-one], for which the IC50 at Cdk5/p25 was 410 nM; at cdk2/cyclinA it was 490 nM; at cdk2/cyclinE it was 460 nM; at cdc2/cyclinB, 650 nM; on cdk4/D, 420 nM.

Turning to `O=c1[nH]c2ccc(Nc3ncc4ccc(=O)n(CC5CC5)c4n3)cc2[nH]1` [Example 577, 8-Cyclopropylmethyl-2-(2-oxo-2,3-dihydro-1H-benzimidazol-5-ylamino)-8H-pyrido[2,3-d]pyrimidin-7-one], the IC50 against Cdk5/p25 turned out to be 92 nM; against cdk2/cyclinA, 120 nM; at cdk2/cyclinE, 110 nM; at cdc2/cyclinB, 120 nM; on cdk4/D it was 230 nM.

Regarding `O=c1ccc2cnc(Nc3cccc(O)c3)nc2n1CC1CC1` [Example 578, 8-Cyclopropylmethyl-2-(3-hydroxy-phenylamino)-8H-pyrido[2,3-d]pyrimidin-7-one], the IC50 worked out at 110 nM against Cdk5/p25; 190 nM against cdk2/cyclinA; 170 nM against cdk2/cyclinE; 310 nM at cdc2/cyclinB; 140 nM on cdk4/D.

As for `CC1Nc2ccc(Nc3ncc4ccc(=O)n(CC5CC5)c4n3)cc2C1C` (stereo not shown) [Example 580, 8-Cyclopropylmethyl-2-(2,3-dimethyl-2,3-dihydro-1H-indol-5ylamino)-8H-pyrido[2,3-d]pyrimidin-7-one], the IC50 against Cdk5/p25 was determined as 130 nM; on cdk2/cyclinA, 270 nM; on cdk2/cyclinE, 130 nM; at cdc2/cyclinB it was 79 nM; at cdk4/D, 550 nM.

With `O=c1ccc2cnc(Nc3ccc4[nH]c5ccccc5c4c3)nc2n1CC1CC1` [Example 582, 2-(9H-Carbazol-3-ylamino)-8-cyclopropylmethyl-8H-pyrido[2,3-d]pyrimidin-7-one], the IC50 on Cdk5/p25 is 190 nM; against cdk2/cyclinA, 440 nM; on cdk2/cyclinE, 250 nM; on cdc2/cyclinB, 280 nM; at cdk4/D it was 660 nM.

Regarding `O=C1CSc2ccc(Nc3ncc4ccc(=O)n(CC5CC5)c4n3)cc2N1` [Example 584, 8-Cyclopropylmethyl-2-(3-oxo-3,4-dihydro-2H-1,4-benzothiazin-6-ylamino)-8H-pyrido[2,3-d]pyrimidin-7-one], the IC50 against Cdk5/p25 amounted to 39 nM; at cdk2/cyclinA, 140 nM; against cdk2/cyclinE it was 100 nM; against cdc2/cyclinB, 170 nM; at cdk4/D it was 98 nM.

Regarding `CC(=O)Nc1cc(Nc2ncc3ccc(=O)n(CC4CC4)c3n2)ccc1C` [Example 585], the IC50 against Cdk5/p25 is 450 nM; on cdk2/cyclinA, 180 nM; against cdk2/cyclinE, 320 nM; on cdc2/cyclinB, 340 nM; on cdk4/D it was 210 nM.
